Patent US20240415790A1, “A COMPOSITION FOR USE IN THE TREATMENT OF INTERVERTEBRAL DISC HERNIATION” (STAYBLE THERAPEUTICS AB, priority 2020, published 2024)
Several values for one entry are separate records, joined by “and”; a condition that tells them apart may be missing. Equal values may be shown once.

Experiments:
[1] = tested on: porcine lumbar spine (L3/4 IVD); test: Flexural rigidity of the isolated porcine lumbar spine after intradiscal LA (series 1); format: in vivo, pig; conditions: 28 days
Procedure: The pigs were pre-medicated by intramuscular injection of dexmedetomidin (Domitor®vet, Orion Pharma, Sollentuna, Sweden) and a commercial mixture of zolazepam and tiletamine (Zoletil®vet 100, Virbac, Carros, France) in conventional doses. Anesthesia was maintained by buprenophine ([…], Orion Pharma) 0.03 mg/kg intramuscularly, carpofen (Rimadyl®vet, Orion Pharma) 4 mg/kg intravenously and isoflurane ([…] Pharma AB, Stockholm, Sweden) using a Servo 900 respirator (Siemens, Munich, Germany). Before recovering from anesthesia, atipamezol (Antisedan®vet, Orion Pharma) was given intramuscularly. On the first three days after surgery the pigs received oral carprofen 2 mg/kg twice daily. The pigs were placed on the right side. […] The concentration was determined based on the pilot experiments on the effects of LA on collagen secretion from human NP cells (as described in WO 2017/046030). […] The height and width of normally appearing NP (FIG. 6a) in the anteroposterior (short vertical double arrow) and bilateral (short horizontal double arrow) directions, respectively, were measured and expressed in relation to the height (long vertical double arrow), and width (long horizontal double arrow) of the IVD. […] The distances between the lateral processes of the vertebrae cranially and caudally to the injected IVD was measured with a caliper at full ipsi- or contralateral flexion. […]

[2] = tested on: patients with chronic discogenic low back pain; test: Clinical study, exploratory VAS back and leg pain and ODI; format: in vivo, human
Description: Scoring of visual analog scale (VAS) for both back and leg pain and Oswestry Disability Index (ODI) were used as exploratory objectives. The sample size was not based on power calculations but was considered appropriate for a single ascending dose study to provide initial safety data on 3 different dose levels of the LA formulation. The study has been registered on the ClinicalTrials.gov website and on the EU Clinical Trials Register. It was approved by the Stockholm Regional Ethics Committee (approval No. 2016-2323-31/4) and by the Swedish Medical Products Agency (approval No. 5.1-2016-86227).
Disability was evaluated using the ODI.

CC(O)C(=O)O (centres unmarked) [LA, lactic acid]
Flexural rigidity (mm, mean ± SD) ([1]; pig L3/4 IVD, 0.2 mL LA 120 mg/mL intradiscal, n=6, difference of process distances at full flexion (lower = stiffer)): 2.7 ± 1.1 mm | Flexural rigidity, LA- vs placebo-injected and naive IVDs ([1]; pig, LA 120 mg/mL): marked difference in flexural rigidity | Leg pain (VAS) at baseline ([2]; 45 mg group, baseline): no leg pain | Mean leg pain at screening ([2]; 90 mg group): 3 mm | Mean leg pain at screening ([2]; 180 mg group): 14 mm | VAS (mm) for cLBP, Mean (SD) ([2]; LA 45 mg, Visit 1 (Screening), baseline): 19 mm and 19 (10) mm | VAS (mm) for cLBP, Mean (SD) ([2]; LA 45 mg, Visit 5 (3 months)): 22 (8) mm | VAS (mm) for cLBP, Mean (SD) ([2]; LA 45 mg, Visit 6 (6 months)): 52 (28) mm | VAS (mm) for cLBP, Mean (SD) ([2]; LA 45 mg, Visit 7 (12 months)): 59 (40) mm | VAS (mm) for cLBP, Mean (SD) ([2]; LA 90 mg, Visit 1 (Screening), baseline): 44 mm and 44 (25) mm | VAS (mm) for cLBP, Mean (SD) ([2]; LA 90 mg, Visit 5 (3 months)): 44 (22) mm | VAS (mm) for cLBP, Mean (SD) ([2]; LA 90 mg, Visit 6 (6 months)): 44 (6) mm | VAS (mm) for cLBP, Mean (SD) ([2]; LA 90 mg, Visit 7 (12 months)): 34 (14) mm | VAS (mm) for cLBP, Mean (SD) ([2]; LA 180 mg, Visit 1 (Screening), baseline): 52 mm and 52 (18) mm | VAS (mm) for cLBP, Mean (SD) ([2]; LA 180 mg, Visit 5 (3 months)): 27 (15) mm | VAS (mm) for cLBP, Mean (SD) ([2]; LA 180 mg, Visit 6 (6 months)): 28 (32) mm | VAS (mm) for cLBP, Mean (SD) ([2]; LA 180 mg, Visit 7 (12 months)): 61 (26) mm
